Experimental data from patent US20020110808A1, “Toxicant-induced differential gene expression” (priority 2000, published 2002).

Experiments:
[1] = tested on: HepG2 cells; test: cDNA array (GF200) expression profiling; type: cell-based, human; conditions: 20 mM acetaminophen, 16 mM caffeine, 100 mM thioacetamide
Description: Cells were grown in DMEM/F12 medium with 10% fetal bovine serum in tissue culture flasks for 3 days following splitting, at which time they were at or near confluency. […] For each treated sample, an untreated control flask was set up with the same medium. Following the treatment period, mRNA was isolated by affinity purification on oligo(dT) cellulose resin using the Poly(A) Pure mRNA isolation kit from Ambion. RNA quality was assessed by agarose gel electrophoresis, and yields were determined by absorbance at 260 nm.
Radiolabeled cDNA for array hybridizations were prepared as follows. To a solution of 2 μg of RNA in 8 μl DEPC-treated water was added 2 μl of 1 μg/μl oligo(dT) (10-20 mer mixture, Research Genetics). After incubation for 10 min at 70° C., the solution was chilled on ice for 2 min, and then added to 6 μl of 5× first strand buffer (250 mM Tris-HCl (pH 8.3), 375 mM KCl, 15 mM MgCl2; Gibco-BRL), 1 μl of 0.1M DTT, 1.5 μl dNTP mix (20 mM each dATP, dGTP and dTTP), 10 μl of 10 mCi/ml [α-^33P]dCTP (1000 Ci/mmol, Amersham), and 1.5 μl of 200 U/μl reverse transcriptase (Superscript II, Gibco-BRL). Following a 90 min incubation at 37° C., cDNA targets were purified by passage through G-50 Sephadex spin columns (Pharmacia) or Bio-Spin 6 columns (BioRad).
GF200 cDNA arrays (Research Genetics) were washed in 0.5% boiling SDS for 5 min and prehybridized for 3 hrs at 42° C. in 5 ml MicroHyb solution (Research Genetics) containing 5 μl of 1 μg/ml poly(dA) (Research Genetics) and 5 μl of 1 μg/ml human Cot-I DNA (Gibco-BRL) that was denatured for 3 min at 100° C. prior to use. Labeled target nucleic acids, boiled for 3 min, were added directly, and hybridization was allowed to proceed for 16-18 hr at 42° C. in roller bottles in hybridization ovens. Arrays were washed twice in 2× SSC, 1% SDS at room temperature for 2 min, and then twice in 0.5× SSC, 1% SDS at 65° C. for 20 min. Arrays were exposed to storage phosphor screens for 3 days and scanned using a phosphorimager (Molecular Dynamics). Arrays were stripped for reuse by placing in boiling 0.5% SDS and then incubating for 1.5 hr with shaking at room temperature, allowing to solution to cool. After stripping, arrays were exposed to storage phosphor screens overnight to confirm loss of signal.
Spot intensities were determined using Pathways software (Research Genetics). Data from quadruplicate sets of hybridizations were normalized by local regression using NLR software (Tom Kepler, North Carolina State University). Cluster analysis was carried out using the Clustan Graphics software package from Clustan Limited (Edinburgh).

[2] = tested on: HepG2 cells; test: BrdU incorporation cell proliferation assay; type: cell-based; conditions: Homo sapiens
Description: HepG2 cells (see e.g., Aden et al., Nature 282:615-616 (1979)) (ATCC HB-8065) were maintained in DMEM/F-12 medium with 10% fetal bovine serum and 1% antibiotic/antimycotic. For routine culturing and mRNA preps, cells were grown in 75 cm^2 flasks and split every 4-5 days. For plate assays, cells were plated in 96-well microtiter plates at 1×10^5 cells per well in 100 μl of growth medium.
Depending on the desired exposure time, cell treatments began 3 or 4 days after splitting or plating. At this time, the cells were near or at confluency. […] Cell treatments were at 37° C.
Uptake of 5-bromo-2′-deoxyuridine (BrdU) was measured using the Cell Proliferation ELISA kit from Boehringer-Mannheim (Indianapolis, Ind.).
Cell proliferation assays based on measurement of BrdU incorporation were performed according to the manufacturer's instructions (Boehringer Mannheim “Cell Proliferation ELISA Kit”).

[3] = tested on: HepG2 cells; test: Dot blot array expression assay; conditions: 24 hr, two-fold threshold
Description: The quality of the PCR reactions was assessed by agarose gel electrophoresis. Human genomic DNA (Clontech) and PCR products were robotically dotted in 100 nl aliquots onto positively-charged nylon membranes using the BioDot instrument (Cartesian Technologies, Inc.). After uv-crosslinking, the membranes were rinsed in 2× SSC and allowed to air-dry. Prior to addition of labeled cDNA probes, membranes were washed in boiling 1% SDS, rinsed with 6× SSC, and incubated in 5 mL of 42° C. Microhyb solution (Research Genetics) for 2 hr. Ten minutes prior to addition of the probes, the Microhyb solution was replaced with an equal amount of fresh 42° C. Microhyb solution containing denatured human Cot-1 DNA (Gibco BRL) and poly(dA) primer (Research Genetics) (both at final concentrations of 1 ng/μl).
For each reverse transcription reaction, 2 μg of mRNA was incubated with oligo(dT) primer (200 ng/μl) at 70° C. for 10 minutes. Tubes were chilled and spun briefly. The following reagents (with the final concentrations in parentheses) were added: first strand buffer (1×), DTT (10 mM), dNTP mix (1 mM each of dATP, dGTP, dTTP), [α-^33P]dCTP (3.3 μCi/μl) and Superscript II Reverse Transcriptase (10 units/μL). The samples were kept at 37° C. for 1.5 hr. Unincorporated nucleotides were removed by spinning the reaction mixture through a G-50 column. […] Probe quality was assessed by electrophoresis on a 10% denaturing polyacrylamide minigel. Denatured probes were added directly to the Microhyb solution and hybridized overnight at 42° C. Membranes were washed twice under each of the following conditions: (1) 2× SSC/0.1% SDS at room temperature, 5 min; (2) 0.2× SSC/0.1% SDS at room temperature, 5 min; (3) 0.2× SSC/0.1% SDS at 42° C., 15 min, (4) 0.1× SSC/0.1% SDS at 68° C., 15 min. Membranes were then rinsed briefly in 2× SSC at room temperature, covered with Saran wrap, and exposed to storage phoshpor screens. After three days, screens were scanned using a Storm phosphorimager (Molecular Dynamics). Images were analyzed using ImageQuant software (Molecular Dynamics).
We employed a rapid dot blot assay as a secondary screen for gene expression changes. We tested each of the unique clones against each of the three treatments. […] For these clones, the dot blot assay functioned not as a confirmation assay but as an initial screen for differential expression. Dot blots were prepared by robotically arraying subclone-derived PCR products in quadruplicate onto positively charged nylon membranes. […] In general, each dot consisted of over 80 ng of PCR product, as estimated by inspection of the PCR reactions run on agarose gels. This high quantity of DNA ensured that saturation of spots, with consequent loss of quantitation, would not occur. Spots of genomic DNA were included on each filter to allow normalization between control and treated sample intensities.

Cn1c(=O)c2c(ncn2C)n(C)c1=O [caffeine]
Number of genes with statistically significant (p<0.05) change in expression in three or more adjacent time points ([1]; 1 to 24 hr time course): 158
Global differential gene expression (rms) over time ([1]; 1 to 24 hr): few changes until 6 hr, after which overall differential expression is fairly constant
inhibition at 16000 µM ([2]; HepG2, 24 h, read-out: Inhibition of BrdU uptake (cell proliferation)): 67 to 80%
IC50 ([2]; HepG2, read-out: IC50, BrdU incorporation in HepG2 cells): ~6 mM
Number of 27 unconfirmed or non-matching clones showing an expression change [3]: 7
